Assay results taken from ChEMBL document CHEMBL5385865, “Discovery and optimization of 2-(trifluoromethyl)benzimidazole derivatives as novel ferroptosis inducers in vitro and in vivo” (Eur J Med Chem, 2023).
pIC50: −log10 of the molar value. Active and inactive are the calls of the source. The calls are words filed in the database; no cut-off is given here.

Assays:
A-375 [1] = assay: Lethality in human A-375 cells assessed as inhibition of cell viability incubated for 24 hrs by MTT assay; type: functional, cell-based; settings: A-375, 24 h
HeLa = assay: Lethality in human HeLa cells assessed as decrease in cell viability at 10 uM incubated for 48 hrs in presence of Fer-1 by MTT assay; type: functional, cell-based
[2] = Toxicity in BALB/c nude mouse xenografted with human HepG2 cells assessed as body weight loss at 15 to 30 mg/kg, ip administered every other day for 21 days; type: organism-based; settings: in vivo, 504 h, dose 15-30 mg/kg, time 21 day
HepG2 = assay: Lethality in human HepG2 cells assessed as inhibition of cell viability incubated for 24 hrs by MTT assay; type: functional, cell-based; settings: HepG2, 24 h
[3] = Toxicity in BALB/c nude mouse xenografted with human HepG2 cells assessed as effect on serum ALT level at 15 to 30 mg/kg, ip administered every other day for 21 days; type: organism-based; settings: in vivo, 504 h, dose 15-30 mg/kg, time 21 day
A-375 [4] = assay: Lethality in human A-375 cells assessed as decrease in cell viability at 10 uM incubated for 48 hrs in presence of Fer-1 by MTT assay; type: functional, cell-based
[5] = Metabolic stability in human liver microsomes assessed as intrinsic clearance measured per mg protein at 1 uM in presence of NADPH by LC-MS analysis; type: ADME, Microsome; settings: read-out: CLH
[6] = Toxicity in BALB/c nude mouse xenografted with human HepG2 cells assessed as histological change in lung at 15 to 30 mg/kg, ip administered every other day for 21 days by H and E staining based analysis; type: organism-based; settings: in vivo, 504 h, dose 15-30 mg/kg, time 21 day
MDA-MB-231 = assay: Lethality in human MDA-MB-231 cells assessed as decrease in cell viability at 10 uM incubated for 48 hrs in presence of Fer-1 by MTT assay; type: functional, cell-based
DU-145 [7] = assay: Lethality in human DU-145 cells assessed as decrease in cell viability at 10 uM incubated for 48 hrs in presence of Fer-1 by MTT assay; type: functional, cell-based
HT-1080 [8] = assay: Induction of ferroptosis in human HT-1080 cells assessed as cell death at 10 uM incubated for 24 hrs in presence of Nec-1 by MTT assay; type: functional, cell-based
HT-1080 [9] = assay: Induction of ferroptosis in human HT-1080 cells assessed as increase in mitochondrial membrane density at 5 uM incubated for 24 hrs by TEM analysis; type: functional, cell-based
DU-145 [10] = assay: Lethality in human DU-145 cells assessed as inhibition of cell viability incubated for 24 hrs by MTT assay; type: functional, cell-based; settings: DU-145, 24 h

With CN(C)S(=O)(=O)c1ccc(N2CCC(Cn3c(C(F)(F)F)nc4ccccc43)CC2)cc1 the pIC50 (A-375 [1]) was 5.64, the Activity (HeLa) was “inactive” and the Activity [2] was “Non-Toxic”. For the same molecule, the pIC50 (HepG2) was 5.88, the Activity [3] was “Non-Toxic” and the Activity (A-375 [4]) was “inactive”. The microsomal CLint at 1 µM [5] was 88.6 µL/min/mg, the Activity [6] was “Non-Toxic” and the Activity (MDA-MB-231) was “inactive”. The Activity (DU-145 [7]) was “inactive”, the Activity (HT-1080 [8]) was “Active” and the Activity (HT-1080 [9]) was “Active”. For the same molecule, the pIC50 (DU-145 [10]) was 5.79.
